Laboratory results: patent US4351949A, “Bicyclic prostaglandin analogs and method of synthesis” (Iowa State University Research Foundation, Inc., priority 1981, dated 1982)
In brackets after ≈: the same amount, converted by molar mass. Read-outs that look alike come from different tables or passages of the source.

Assays:
experimental thrombosis [1] = conditions: cited from earlier work; for inhibition of laser-induced thrombosis by potent inhibitors of platelet aggregation: rabbit ear chamber, general statement on the model
experimental thrombosis [2] = assay: in vivo biolaser model of experimental thrombosis (rabbit ear chamber); conditions: combined with anagrelide at a lower than threshold level
Text: These compounds were studied in vivo in an animal model for experimental thrombosis. The use of this model is described in detail in the reprint, Use of the Biolaser in the Evaluation of Anti-Thrombotic Agents, J. S. Fleming et al. "Platelets and Thrombosis", eds. S. Sherry and A. Scriabrine, University Park Press, 1974, Baltimore, which is incorporated herein by reference.
In brief, a micro-injury is created by a laser beam focused through a microscope onto the endothelium surface of a small blood vessel in a surgically implanted ear chamber of a rabbit. The injury induces the rapid formation of a platelet thrombis which can be measured. […] Prostacyclin is active in the biolaser model when infused intraveneously. The results of these tests preliminarily indicate that there is a super additive interaction between anagrelide and the compounds of this invention. […] To date, no other compounds have undergone significant in vivo analysis in the rabbit ear test.

[3] = test system: arachidonic acid induced platelet aggregation; assay: in vitro arachidonic acid induced blood platelet aggregation; assay type: cell-based
Description: The compounds of Examples 1 through 11 were tested against arachidonic acid induced platelet aggregation.

[4] = concentration of agent necessary to reduce by 50% the in vitro blood platelet aggregation caused by addition of arachidonic acid, read-out: EC 50 vs Arachidonic Acid
[5] = Platelet, for comparison, vs arachidonic acid, read-out: EC 50 of comparison compounds

O=C1CN2Cc3c(ccc(Cl)c3Cl)N=C2N1 [anagrelide]
inhibition of laser-induced thrombosis by potent inhibitors of platelet aggregation (experimental thrombosis [1]): significant inhibition

CCCCCC(O)C#CC1C2CCC(C2)C1C/C=C/CCCC(=O)OC (stereo not drawn) [Example 2]
reduction in thrombosis in combination with anagrelide (experimental thrombosis [2]): substantial reduction in thrombosis
EC50 [3, 4]: 0.07 µg/mL (≈ 0.194 µM)

CCCCCC(O)C#CC1C2CCC(C2)C1C/C=C/CCCCCCCC(=O)O (stereo not drawn) [Example 3]
EC50 [3, 4]: 1 µg/mL (≈ 2.48 µM)

CCCCCC(O)C#CC1C2CCC(C2)C1C/C=C/CCCCCCCC(=O)OC (stereo not drawn) [Example 4]
EC50 [3, 4]: 0.4 µg/mL (≈ 0.96 µM)

CCCCC[C@H](O)/C=C/[C@@H]1[C@H]2C/C(=C/CCCC(=O)O)O[C@H]2C[C@H]1O [prostacyclin]
EC50 [3, 5]: 0.004 µg/mL (≈ 0.0113 µM)
activity in the biolaser model (experimental thrombosis [1]; infused intravenously, rabbit): active
inhibition of laser-induced thrombosis by potent inhibitors of platelet aggregation (experimental thrombosis [1]): significant inhibition

CCCCCC(O)C#CC1C2C=CC(C2)C1C/C=C/CCCC(=O)OC (stereo not drawn) [Example 7]
EC50 [3, 4]: 3.6 µg/mL (≈ 10 µM)

CCCCCC(O)C#CC1C2CCC(C2)C1C/C=C/C(=O)O (stereo not drawn) [Example 5]
EC50 [3, 4]: 4 µg/mL (≈ 13.1 µM)

CCCCCC(O)C#CC1C2CCC(CC2)C1C/C=C/CCCC(=O)OC (stereo not drawn) [Example 8]
EC50 [3, 4]: 5.8 µg/mL (≈ 15.5 µM)

CCCCCC(O)C#CC1C2CCC(C2)C1C/C=C/C(=O)OC (stereo not drawn) [Example 6]
EC50 [3, 4]: 8 µg/mL (≈ 25.1 µM)

CCCCCC(O)C#CC1C2CCC(C2)C1C/C=C/CCCCO (stereo not drawn) [Example 9]
EC50 [3, 4]: 3.6 µg/mL (≈ 10.8 µM)

CCCCCC(O)C#CC1C2CCC(C2)C1C/C=C/CCCC(=O)O (stereo not drawn) [Example 1]
EC50 [3, 4]: 0.045 µg/mL (≈ 0.13 µM)

CCCCC[C@H](O)/C=C/[C@H]1[C@H](O)CC(=O)[C@@H]1CCCCCCC(=O)O [PGE1, reference compound]
EC50 [3, 5]: 0.018 µg/mL (≈ 0.0508 µM)
